{
  "source": "ChEMBL document CHEMBL4024706",
  "about": "(Eur J Med Chem, 2017)",
  "key": {"[1]": {"target": "Proto-oncogene tyrosine-protein kinase receptor Ret (Homo sapiens) (UniProt P07949)", "assay": "Inhibition of wild-type human partial length RET (E713 to D1014 residues) expressed in bacterial expression system assessed as residual activity at 1 uM by Kinomescan method relative to control"}, "[2]": {"test_system": "Receptor-type tyrosine-protein kinase FLT3 (Homo sapiens), P36888 [D835H]", "assay": "Inhibition of human partial length FLT3 D835H mutant (V592 to Y969 residues) expressed in bacterial expression system assessed as residual activity at 1 uM by Kinomescan method relative to control"}, "[3]": {"test_system": "Tyrosine-protein kinase ABL1 (Homo sapiens), P00519 [Y253F]", "assay": "Inhibition of human phosphorylated ABL1 Y253F mutant (S229 to K512 residues) expressed in mammalian expression system assessed as residual activity at 1 uM by Kinomescan method relative to control"}, "[4]": {"test_system": "U2932", "assay": "Growth inhibition of human U2932 cells", "format": "functional", "details": "Homo sapiens, U2932"}, "[5]": {"test_system": "Epidermal growth factor receptor (Homo sapiens), P00533 [UNDEFINED MUTATION]", "assay": "Inhibition of human partial length EGFR L747-T751del/Sins mutant expressed in bacterial expression system assessed as residual activity at 1 uM by Kinomescan method relative to control"}, "[6]": {"target": "Serine/threonine-protein kinase PLK3 (Homo sapiens) (UniProt Q9H4B4)", "assay": "Inhibition of wild-type human partial length PLK3 (A42 to L334 residues) expressed in mammalian expression system assessed as residual activity at 1 uM by Kinomescan method relative to control"}, "[7]": {"target": "Myosin light chain kinase (Homo sapiens) (UniProt Q32MK0)", "sequence (Q32MK0 whole entry, the tested form may be a part)": "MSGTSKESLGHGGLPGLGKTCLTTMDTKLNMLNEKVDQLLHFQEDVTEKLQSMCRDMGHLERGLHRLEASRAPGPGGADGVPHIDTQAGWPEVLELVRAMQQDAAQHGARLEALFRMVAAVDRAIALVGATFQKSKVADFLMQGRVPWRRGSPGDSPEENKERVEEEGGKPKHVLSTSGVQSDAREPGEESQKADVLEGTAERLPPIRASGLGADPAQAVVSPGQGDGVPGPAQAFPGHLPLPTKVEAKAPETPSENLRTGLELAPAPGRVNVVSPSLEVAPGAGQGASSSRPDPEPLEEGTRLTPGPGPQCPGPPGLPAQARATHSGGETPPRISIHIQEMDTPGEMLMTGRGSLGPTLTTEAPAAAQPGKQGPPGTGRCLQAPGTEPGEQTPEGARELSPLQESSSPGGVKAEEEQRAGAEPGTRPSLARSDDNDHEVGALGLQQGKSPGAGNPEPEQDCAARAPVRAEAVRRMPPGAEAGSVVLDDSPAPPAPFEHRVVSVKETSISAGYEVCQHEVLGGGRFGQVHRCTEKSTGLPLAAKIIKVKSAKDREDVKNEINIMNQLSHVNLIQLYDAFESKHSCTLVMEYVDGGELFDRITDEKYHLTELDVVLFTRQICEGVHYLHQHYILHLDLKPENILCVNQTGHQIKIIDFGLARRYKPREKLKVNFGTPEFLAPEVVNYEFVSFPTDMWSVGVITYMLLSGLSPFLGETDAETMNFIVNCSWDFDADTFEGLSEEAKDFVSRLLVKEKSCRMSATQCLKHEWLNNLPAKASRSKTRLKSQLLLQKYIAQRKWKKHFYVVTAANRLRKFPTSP", "assay": "Inhibition of wild-type human partial length MLCK (D488 to K800 residues) expressed in bacterial expression system assessed as residual activity at 1 uM by Kinomescan method relative to control"}, "[8]": {"target": "Phosphatidylinositol 4-phosphate 3-kinase C2 domain-containing subunit beta (Homo sapiens) (UniProt O00750)", "assay": "Inhibition of wild-type human partial length PIK3C2B (M1 to L1634 residues) expressed in mammalian expression system assessed as residual activity at 1 uM by Kinomescan method relative to control"}, "[9]": {"target": "Calcium/calmodulin-dependent protein kinase kinase 1 (Homo sapiens) (UniProt Q8N5S9)", "assay": "Inhibition of wild-type human partial length CAMKK1 (R65 to E414 residues) expressed in bacterial expression system assessed as residual activity at 1 uM by Kinomescan method relative to control"}, "[10]": {"target": "Insulin receptor (Homo sapiens) (UniProt P06213)", "assay": "Inhibition of wild-type human partial length INSR (P997 to E1318 residues) expressed in mammalian expression system assessed as residual activity at 1 uM by Kinomescan method relative to control"}, "[11]": {"target": "Mitogen-activated protein kinase kinase kinase 5 (Homo sapiens) (UniProt Q99683)", "sequence (Q99683 whole entry, the tested form may be a part)": "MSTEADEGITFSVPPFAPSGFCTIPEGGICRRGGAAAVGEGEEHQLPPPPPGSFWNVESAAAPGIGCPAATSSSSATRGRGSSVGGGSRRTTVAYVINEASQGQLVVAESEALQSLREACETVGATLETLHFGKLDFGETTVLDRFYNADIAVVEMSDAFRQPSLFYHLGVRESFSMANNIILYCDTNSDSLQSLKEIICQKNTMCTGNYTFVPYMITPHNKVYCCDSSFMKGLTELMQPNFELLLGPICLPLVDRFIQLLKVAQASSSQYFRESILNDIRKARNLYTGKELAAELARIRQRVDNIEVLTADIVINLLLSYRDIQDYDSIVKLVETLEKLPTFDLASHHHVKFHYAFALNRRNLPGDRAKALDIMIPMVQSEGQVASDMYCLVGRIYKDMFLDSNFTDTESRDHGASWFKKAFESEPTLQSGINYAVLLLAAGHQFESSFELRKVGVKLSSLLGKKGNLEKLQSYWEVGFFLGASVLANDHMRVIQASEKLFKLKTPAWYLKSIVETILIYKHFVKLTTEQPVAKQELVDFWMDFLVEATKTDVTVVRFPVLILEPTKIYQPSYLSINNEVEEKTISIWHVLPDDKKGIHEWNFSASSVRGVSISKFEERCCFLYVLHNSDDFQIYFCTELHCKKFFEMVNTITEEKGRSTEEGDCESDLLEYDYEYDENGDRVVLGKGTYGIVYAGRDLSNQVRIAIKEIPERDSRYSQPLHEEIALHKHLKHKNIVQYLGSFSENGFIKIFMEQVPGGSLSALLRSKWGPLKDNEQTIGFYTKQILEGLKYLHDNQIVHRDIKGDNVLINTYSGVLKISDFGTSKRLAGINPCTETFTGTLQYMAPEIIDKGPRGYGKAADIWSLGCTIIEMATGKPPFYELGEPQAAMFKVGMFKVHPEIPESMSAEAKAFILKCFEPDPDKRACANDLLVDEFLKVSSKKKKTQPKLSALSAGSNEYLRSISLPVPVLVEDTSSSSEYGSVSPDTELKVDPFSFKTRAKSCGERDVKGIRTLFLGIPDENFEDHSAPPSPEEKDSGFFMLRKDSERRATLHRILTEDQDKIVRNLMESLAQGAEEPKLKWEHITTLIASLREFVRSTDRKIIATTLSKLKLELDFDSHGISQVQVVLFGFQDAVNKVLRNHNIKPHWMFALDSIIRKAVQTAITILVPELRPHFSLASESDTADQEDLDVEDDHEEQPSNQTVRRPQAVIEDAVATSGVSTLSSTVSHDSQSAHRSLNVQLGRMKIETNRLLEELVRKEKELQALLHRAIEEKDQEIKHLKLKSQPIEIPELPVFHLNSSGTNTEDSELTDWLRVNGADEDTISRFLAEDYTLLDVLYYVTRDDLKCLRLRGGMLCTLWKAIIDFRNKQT", "assay": "Inhibition of wild-type human partial length ASK1 (E648 to S964 residues) expressed in bacterial expression system assessed as residual activity at 1 uM by Kinomescan method relative to control"}, "[12]": {"test_system": "Phosphatidylinositol 4,5-bisphosphate 3-kinase catalytic subunit alpha isoform (Homo sapiens), P42336 [E545K]", "sequence (P42336 whole entry E545K, the tested form may be a part, canonical isoform)": "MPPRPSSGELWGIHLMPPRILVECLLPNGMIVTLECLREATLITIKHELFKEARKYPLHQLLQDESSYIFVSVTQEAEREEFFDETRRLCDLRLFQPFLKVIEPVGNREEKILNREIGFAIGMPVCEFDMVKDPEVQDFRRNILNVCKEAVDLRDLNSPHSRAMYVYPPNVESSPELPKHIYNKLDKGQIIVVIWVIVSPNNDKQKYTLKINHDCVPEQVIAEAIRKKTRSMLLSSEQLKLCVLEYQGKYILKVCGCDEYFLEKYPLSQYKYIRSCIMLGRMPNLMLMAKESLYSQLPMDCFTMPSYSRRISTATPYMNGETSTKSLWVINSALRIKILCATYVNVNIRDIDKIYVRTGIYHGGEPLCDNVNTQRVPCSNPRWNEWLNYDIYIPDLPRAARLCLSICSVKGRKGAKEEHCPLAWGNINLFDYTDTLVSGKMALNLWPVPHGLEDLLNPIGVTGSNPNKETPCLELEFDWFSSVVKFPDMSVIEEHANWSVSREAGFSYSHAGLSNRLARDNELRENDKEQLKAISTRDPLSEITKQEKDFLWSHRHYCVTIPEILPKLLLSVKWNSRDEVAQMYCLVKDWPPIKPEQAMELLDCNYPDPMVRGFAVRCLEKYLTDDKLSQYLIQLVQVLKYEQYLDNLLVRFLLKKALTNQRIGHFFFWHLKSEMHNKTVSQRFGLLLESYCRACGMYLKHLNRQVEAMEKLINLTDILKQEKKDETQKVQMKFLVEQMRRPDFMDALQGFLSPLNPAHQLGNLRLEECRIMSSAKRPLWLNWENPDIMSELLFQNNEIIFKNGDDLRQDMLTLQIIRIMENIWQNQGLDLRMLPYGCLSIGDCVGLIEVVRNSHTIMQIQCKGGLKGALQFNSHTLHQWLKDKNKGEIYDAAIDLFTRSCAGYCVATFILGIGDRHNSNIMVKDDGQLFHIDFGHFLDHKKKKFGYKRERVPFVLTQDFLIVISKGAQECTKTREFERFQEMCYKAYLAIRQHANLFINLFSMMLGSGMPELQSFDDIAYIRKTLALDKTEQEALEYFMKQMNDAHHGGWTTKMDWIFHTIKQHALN", "assay": "Inhibition of human partial length PIK3CA E545K mutant (R108 to N1068 residues) expressed in mammalian expression system assessed as residual activity at 1 uM by Kinomescan method relative to control"}, "[13]": {"target": "Serine/threonine-protein kinase tousled-like 1 (Homo sapiens) (UniProt Q9UKI8)", "assay": "Inhibition of wild-type human partial length TLK1 (K447 to A754 residues) expressed in bacterial expression system assessed as residual activity at 1 uM by Kinomescan method relative to control"}, "[14]": {"target": "Ribosomal protein S6 kinase alpha-3 (Homo sapiens) (UniProt P51812)", "assay": "Inhibition of wild-type human partial length C-terminal RSK2 kinase domain 2 (V402 to S715 residues) expressed in mammalian expression system assessed as residual activity at 1 uM by Kinomescan method relative to control"}, "[15]": {"test_system": "Epidermal growth factor receptor (Homo sapiens), P00533 [L858R,T790M]", "assay": "Inhibition of human partial length EGFR L858R/T790M double mutant (R669 to V1011 residues) expressed in mammalian expression system assessed as residual activity at 1 uM by Kinomescan method relative to control"}, "[16]": {"target": "Fibroblast growth factor receptor 2 (Homo sapiens) (UniProt P21802)", "sequence (P21802 22-821 limits assumed)": "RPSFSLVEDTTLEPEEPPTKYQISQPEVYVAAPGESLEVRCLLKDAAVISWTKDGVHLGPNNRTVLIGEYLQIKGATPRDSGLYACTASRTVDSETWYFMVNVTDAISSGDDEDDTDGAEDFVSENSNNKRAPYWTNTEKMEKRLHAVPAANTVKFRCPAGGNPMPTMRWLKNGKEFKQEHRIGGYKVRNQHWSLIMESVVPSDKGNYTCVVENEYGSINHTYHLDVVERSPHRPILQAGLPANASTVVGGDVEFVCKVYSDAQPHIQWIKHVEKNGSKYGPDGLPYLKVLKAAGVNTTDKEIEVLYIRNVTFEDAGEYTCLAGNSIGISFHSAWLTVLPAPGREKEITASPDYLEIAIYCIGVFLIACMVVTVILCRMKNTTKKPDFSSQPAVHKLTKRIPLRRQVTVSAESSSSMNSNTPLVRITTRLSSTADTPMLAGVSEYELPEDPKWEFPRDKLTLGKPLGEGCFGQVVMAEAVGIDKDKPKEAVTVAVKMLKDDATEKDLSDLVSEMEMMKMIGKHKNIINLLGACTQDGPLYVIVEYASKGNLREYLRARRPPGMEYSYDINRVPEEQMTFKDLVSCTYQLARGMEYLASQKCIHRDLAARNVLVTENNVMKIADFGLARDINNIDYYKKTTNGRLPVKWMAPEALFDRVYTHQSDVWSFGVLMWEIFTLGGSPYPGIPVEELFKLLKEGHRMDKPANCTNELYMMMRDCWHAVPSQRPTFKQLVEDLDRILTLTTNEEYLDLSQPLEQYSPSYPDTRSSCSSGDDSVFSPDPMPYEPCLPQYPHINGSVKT", "assay": "Inhibition of wild-type human partial length FGFR2 (D457 to E769 residues) expressed in bacterial expression system assessed as residual activity at 1 uM by Kinomescan method relative to control"}, "[17]": {"test_system": "NB-4", "assay": "Growth inhibition of human NB4 cells", "format": "functional", "details": "Homo sapiens, NB-4"}, "[18]": {"target": "Beta-adrenergic receptor kinase 1 (Homo sapiens) (UniProt P25098)", "assay": "Inhibition of wild-type human full length GRK2 (M1 to L689 residues) expressed in mammalian expression system assessed as residual activity at 1 uM by Kinomescan method relative to control"}, "[19]": {"target": "Wee1-like protein kinase (Homo sapiens) (UniProt P30291)", "assay": "Inhibition of wild-type human partial length WEE1 (M291 to K575 residues) expressed in bacterial expression system assessed as residual activity at 1 uM by Kinomescan method relative to control"}, "[20]": {"test_system": "Phosphatidylinositol 4,5-bisphosphate 3-kinase catalytic subunit alpha isoform (Homo sapiens), P42336 [Q546K]", "sequence (P42336 whole entry Q546K, the tested form may be a part, canonical isoform)": "as the sequence (P42336 whole entry E545K, the tested form may be a part, canonical isoform) above, with K545E, Q546K counted along it", "assay": "Inhibition of human partial length PIK3CA Q546K mutant (R108 to N1068 residues) expressed in mammalian expression system assessed as residual activity at 1 uM by Kinomescan method relative to control"}, "[21]": {"assay": "AUC (0 to infinity) in Sprague-Dawley rat at 1 mg/kg, iv by LC-MS/MS method", "format": "ADME, organism-based", "parameters": "dose 1 mg/kg, route intravenous, time infinity", "details": "in vivo"}, "[22]": {"test_system": "Fibroblast growth factor receptor 3 (Homo sapiens), P22607 [G697C]", "assay": "Inhibition of human partial length FGFR3 G697C mutant (R442 to S771 residues) expressed in bacterial expression system assessed as residual activity at 1 uM by Kinomescan method relative to control"}, "[23]": {"target": "Myotonin-protein kinase (Homo sapiens) (UniProt Q09013)", "assay": "Inhibition of wild-type human partial length DMPK (V47 to V415 residues) expressed in bacterial expression system assessed as residual activity at 1 uM by Kinomescan method relative to control"}, "[24]": {"target": "Ephrin type-B receptor 1 (Homo sapiens) (UniProt P54762)", "sequence (P54762 whole entry, the tested form may be a part)": "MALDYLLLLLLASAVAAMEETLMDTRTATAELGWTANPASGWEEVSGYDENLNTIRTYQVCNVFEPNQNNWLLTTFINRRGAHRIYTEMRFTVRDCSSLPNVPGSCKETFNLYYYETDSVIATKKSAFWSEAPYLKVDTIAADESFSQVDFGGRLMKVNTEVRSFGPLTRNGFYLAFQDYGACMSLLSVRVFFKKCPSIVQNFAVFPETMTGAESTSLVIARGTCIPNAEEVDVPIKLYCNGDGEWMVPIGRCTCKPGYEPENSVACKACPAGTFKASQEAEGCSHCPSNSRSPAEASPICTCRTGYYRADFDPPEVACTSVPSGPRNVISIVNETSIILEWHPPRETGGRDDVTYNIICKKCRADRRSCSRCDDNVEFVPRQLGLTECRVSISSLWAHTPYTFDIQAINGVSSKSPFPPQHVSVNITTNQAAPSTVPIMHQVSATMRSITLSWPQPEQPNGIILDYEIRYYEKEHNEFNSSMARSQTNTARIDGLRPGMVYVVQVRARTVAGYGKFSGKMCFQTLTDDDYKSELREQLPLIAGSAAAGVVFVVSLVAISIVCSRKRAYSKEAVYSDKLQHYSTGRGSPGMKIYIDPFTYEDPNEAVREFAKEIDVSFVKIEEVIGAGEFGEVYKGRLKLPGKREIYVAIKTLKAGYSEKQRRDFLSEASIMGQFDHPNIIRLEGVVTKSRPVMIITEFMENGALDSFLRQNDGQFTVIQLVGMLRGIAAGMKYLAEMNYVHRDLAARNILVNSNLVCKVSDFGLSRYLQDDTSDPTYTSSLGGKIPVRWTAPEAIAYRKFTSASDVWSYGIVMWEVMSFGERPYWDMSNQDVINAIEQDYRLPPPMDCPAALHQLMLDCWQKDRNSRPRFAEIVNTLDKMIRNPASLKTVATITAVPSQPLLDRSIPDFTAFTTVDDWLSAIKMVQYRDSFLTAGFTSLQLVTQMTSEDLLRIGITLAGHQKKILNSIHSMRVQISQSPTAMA", "assay": "Inhibition of wild-type human partial length EPHB1 (P589 to T911 residues) expressed in bacterial expression system assessed as residual activity at 1 uM by Kinomescan method relative to control"}, "[25]": {"target": "Receptor-interacting serine/threonine-protein kinase 4 (Homo sapiens) (UniProt P57078)", "assay": "Inhibition of wild-type human partial length RIPK4 (M1 to V303 residues) expressed in mammalian expression system assessed as residual activity at 1 uM by Kinomescan method relative to control"}, "[26]": {"target": "Tyrosine-protein kinase JAK1 (Homo sapiens) (UniProt P23458)", "assay": "Inhibition of wild-type human partial length JAK1 JH2 pseudokinase domain (R537 to D855 residues) expressed in mammalian expression system assessed as residual activity at 1 uM by Kinomescan method relative to control"}},
  "data": [
    {"molecule": "C=CC(=O)Nc1cc(Nc2cc(-c3cccc(NC(=O)c4ccc(C(C)(C)C)cc4)c3C)cn(C)c2=O)ccc1C(=O)N1CCOCC1", "values": [
      {"measurement": "Activity", "setting": "[1]", "result": 87, "unit": "%"},
      {"measurement": "Activity", "setting": "[2]", "result": 100, "unit": "%"},
      {"measurement": "Activity", "setting": "[3]", "result": 97, "unit": "%"},
      {"measurement": "GI50", "setting": "[4]", "result": 2.4, "unit": "µM"},
      {"measurement": "Activity", "setting": "[5]", "result": 100, "unit": "%"},
      {"measurement": "Activity", "setting": "[6]", "result": 95, "unit": "%"},
      {"measurement": "Activity", "setting": "[7]", "result": 83, "unit": "%"},
      {"measurement": "Activity", "setting": "[8]", "result": 92, "unit": "%"},
      {"measurement": "Activity", "setting": "[9]", "result": 100, "unit": "%"},
      {"measurement": "Activity", "setting": "[10]", "result": 100, "unit": "%"},
      {"measurement": "Activity", "setting": "[11]", "result": 100, "unit": "%"},
      {"measurement": "Activity", "setting": "[12]", "result": 100, "unit": "%"},
      {"measurement": "Activity", "setting": "[13]", "result": 99, "unit": "%"},
      {"measurement": "Activity", "setting": "[14]", "result": 96, "unit": "%"},
      {"measurement": "Activity", "setting": "[15]", "result": 89, "unit": "%"},
      {"measurement": "Activity", "setting": "[16]", "result": 74, "unit": "%"},
      {"measurement": "GI50", "setting": "[17]", "result": 6.6, "unit": "µM"},
      {"measurement": "Activity", "setting": "[18]", "result": 100, "unit": "%"},
      {"measurement": "Activity", "setting": "[19]", "result": 99, "unit": "%"},
      {"measurement": "Activity", "setting": "[20]", "result": 87, "unit": "%"},
      {"measurement": "AUC(0-inf)", "setting": "[21]", "result": 183, "unit": "ng·h/mL"},
      {"measurement": "Activity", "setting": "[22]", "result": 100, "unit": "%"},
      {"measurement": "Activity", "setting": "[23]", "result": 95, "unit": "%"},
      {"measurement": "Activity", "setting": "[24]", "result": 100, "unit": "%"},
      {"measurement": "Activity", "setting": "[25]", "result": 94, "unit": "%"},
      {"measurement": "Activity", "setting": "[26]", "result": 86, "unit": "%"}
    ]}
  ]
}
